Measured values published in patent US4115585A, “Esters of 1-(p-hydroxyphenyl)-2-(1'-methyl-2'-phenoxyethylamino)-1-propanol” (Instituto Luso Farmaco d'Italia S.r.l., priority 1976, dated 1978).

How the values were obtained:
[1] = Hypotensive activity (variation in pressure 1 to 2 days after insertion of a catheter in the abdominal artery, technique of Weeks and Jones); format: in vivo
in vivo = settings: rat, po
Description: According to the invention, esters I may be prepared by the esterification of the phenolic function of 1-(p-hydroxyphenyl)-2-(1'-methyl-2'-phenoxyethylamino)-1-propanol (II) with reactive derivatives like chlorides, bromides, and anhydrides of aliphatic acids of general formula III: [drawing 3] in which R1, R2, and R3 are as reported above. The esterification may be performed in an apolar solvent at reflux (such as benzene, toluene, or an analogous aromatic hydrocarbon) in the presence of an organic base like triethylamine, or in pyridine at room temperature.

SMILES: CC(COc1ccccc1)NC(C)C(O)c1ccc(O)cc1 (stereo not shown) [Isoxysuprine, 1-(p-hydroxyphenyl)-2-(1'-methyl-2'-phenoxyethylamino)-1-propanol]
- Hypotensive Activity Recovery to 50% ([1]; dose 5 mg/Kg os): 8.0 ± 3.0 min
- Hypotensive Activity Recovery to 75% ([1]; dose 5 mg/Kg os): 18.5 ± 6.5 min
- Hypotensive Activity maximal pressure decrease ([1]; dose 5 mg/Kg os): 24.5±11.5 mm Hg
- Hypotensive Activity Recovery to 50% ([1]; dose 10 mg/Kg os): 79.8 ± 32.6 min
- Hypotensive Activity Recovery to 75% ([1]; dose 10 mg/Kg os): 105.0 ± 42.9 min
- Hypotensive Activity maximal pressure decrease ([1]; dose 10 mg/Kg os): 25.3±3.6 mm Hg
- Hypotensive Activity Recovery to 50% ([1]; dose 20 mg/Kg os): 46.4 ± 13.8 min
- Hypotensive Activity Recovery to 75% ([1]; dose 20 mg/Kg os): 110.4 ± 29.4 min
- Hypotensive Activity maximal pressure decrease ([1]; dose 20 mg/Kg os): 28.7±4.9 mm Hg
- Hypotensive Activity Recovery to 50% ([1]; dose 40 mg/Kg os): 34.0 ± 12.8 min
- Hypotensive Activity Recovery to 75% ([1]; dose 40 mg/Kg os): 197.5 ± 59.5 min
- Hypotensive Activity maximal pressure decrease ([1]; dose 40 mg/Kg os): 21.8±2.1 mm Hg

SMILES: CC(COc1ccccc1)NC(C)C(O)c1ccc(OC(=O)C(C)(C)C)cc1 (stereo not drawn) [LR 693, 1-(p-α,α-dimethylpropionyloxyphenyl)-2-(1'-methyl-2'-phenoxyethylamino)-1-propanol]
- Hypotensive Activity Recovery to 50% ([1]; dose 20 mg/Kg os): 29.0 ± 1.0 min
- Hypotensive Activity Recovery to 75% ([1]; dose 20 mg/Kg os): 60.0 ± 20.0 min
- Hypotensive Activity maximal pressure decrease ([1]; dose 20 mg/Kg os): 9.0±1.0 mm Hg
- Hypotensive Activity Recovery to 50% ([1]; dose 40 mg/Kg os): 115.7 ± 21.9 min
- Hypotensive Activity Recovery to 75% ([1]; dose 40 mg/Kg os): 311.7 ± 34.2 min
- Hypotensive Activity maximal pressure decrease ([1]; dose 40 mg/Kg os): 21.3±4.1 mm Hg
- Hypotensive Activity Recovery to 50% ([1]; dose 80 mg/Kg os): 180.2 ± 40.7 min
- Hypotensive Activity Recovery to 75% ([1]; dose 80 mg/Kg os): 384.8 ± 71.0 min
- Hypotensive Activity maximal pressure decrease ([1]; dose 80 mg/Kg os): 18.8±8.0 mm Hg
- LD50 (in vivo): > 5000 mg/kg
